According to patent US20260097083A1, “METHOD FOR PRODUCING PANCREATIC ENDODERM CELLS” (Kyoto University, priority 2022, published 2026):

Legend:
Type in all cases: cell-based
[1] = system: pancreatic endoderm cells after expansion culture; experiment: Induction of differentiation into β-like cells after expansion culture
Protocol: After the expansion culture, the differentiation into β-like cells was induced using the method by Kimura et al. (Non Patent Literature 1) with a portion thereof being modified. Briefly, pancreatic endoderm cells were detached from a 6-well plate using trypsin, and were then suspended in the S4 culture medium at 3×10^5 cells/ml. The cells were seeded on a V-bottomed 96-well plate at 3×10^4 cells/100 μl/well. […] The induction of differentiation of pancreatic endoderm cells that had been repeatedly passaged 5 times using the expansion culture method with “Y-27632+DMSO” or “Y-27632+ALK5i+RA” into β-like cells was promoted. Then, the efficiency of induction into β-like cells was compared with that of a cell cluster obtained by inducing pancreatic endoderm cells that had not been passaged into B-like cells.

[2] = system: NKX6.1-positive pancreatic endoderm cells derived from human iPS cells; experiment: Screening of senescence-related reagents
Protocol: FIG. 2-A A schematic diagram illustrating senescence-related reagent screening. […] After the elapse of one week, the cells were counted under a fluorescence microscope. Cells were differentiated to a pancreatic endoderm cell level using a stepwise differentiation-inducing method, and were then re-seeded on a 24-well plate at 2×10^5/well. The following culture media were added to these cultured cells, and the cells were cultured for 1 week. […] After fixed using 4% PFA, the cells were subjected to β-gal staining and NKX6.1 antibody immunostaining, and fluorescently stained images were acquired using BZ-800 (Keyence). The number of NKX6.1-positive cells, the NKX6.1-positive ratio, and the β-gal-positive ratio were calculated using the BZ-[…]/Macro Cell Count function of that microscope. FIGS. 2-A and 3-A show the outline of this procedure. A reagent enabling proliferation of pancreatic endoderm cells derived from human iPS cells was searched for in the senescence-related reagents. […] Then, (1) the number of NKX6.1-positive cells, or (2) the ratio of NKX6.1-positive cells and the ratio of β gal-positive cells were measured after the culture. FIGS. 2-B to 2-D show the results.

[3] = system: pancreatic endoderm cells derived from human iPS cells; experiment: Expansion culture of pancreatic endoderm cells with Y-27632
Protocol: FIG. 4-A A schematic diagram illustrating expansion culture of pancreatic endoderm cells with Y-27632 (50 μM). NKX6.1-positive pancreatic endoderm cells were seeded on a plate and cultured in a culture medium containing Y-27632 (50 μM) for one week. After the elapse of one week, the cells were reseeded, and passage and expansion culture were repeated. PDX1^+/NKX6.1^+ pancreatic endoderm cells were produced from iPS cells (585A1 line) or ES cells (KhES-3 line) on a 6-well plate using the method by Toyoda et al. (Toyoda T, et al. Stem Cell Reports 2017). Briefly, the undifferentiated cells above were seeded at 1×10^6/well on a 6-well plate coated with iMatrix-511 silk. The cells were cultured in RPMI to which an S1 culture medium (1×B-27 Supplement, 100 U/ml penicillin/streptomycin, 100 ng/ml activin A, and CHIR99021 (Day 1: 3 μM, Days 2 and 3: 1 μM, and Day 4: 0 μM)) had been added for 4 days, in an S2 culture medium (improved MEM to which 0.5×B-27 Supplement, 100 U/ml penicillin/streptomycin, and 50 ng/ml KGF/FGF7 had been added) for 5 days, and in an S3 culture medium (improved MEM to which 0.5×B-27 Supplement, 100 U/ml penicillin/streptomycin, 50 ng/ml KGF/FGF7, 0.2 μM LDN-193189, 0.1 μM SANT-1, and 10 nM TTNPB had been added) for 2 days. The cells were detached from the 6-well plate using trypsin, and were reseeded on a 6-well plate coated with iMatrix-511 silk at 1.5×10^6/well using the S3 culture medium again. On the next day, the culture medium was changed to an S4 culture medium (improved MEM to which 0.5×B-27 Supplement, 100 U/ml penicillin/streptomycin, 100 ng/ml KGF/FGF7, 50 ng/ml EGF, 10 mM nicotinamide, and 50 μM Y-27632 had been added), and the cells were cultured for 4 days. (1) After the cells produced in clause 1 above were washed with PBS(−), 1 ml of 0.25% trypsin-EDTA was added thereto, and the cells were incubated at 37° C. and 5% CO2 for 5 minutes. (2) The adherent cells were detached through pipetting and were added to a 50-ml centrifuge tube. (3) 4 ml of DMEM (Dulbecco's Modified Eagle Medium)/10% FBS/PS (penicillin-streptomycin) was added to the centrifuge tube. (4) The resulting mixture was centrifuged at 400 G for 3 minutes, and the supernatant was removed. (5) The cells were suspended in improved MEM (containing 10 μM Y-27632, 0.5×B-27 Supplement, and 100 U/ml penicillin/streptomycin), and were counted. (6) When the cells were seeded on a 6-well plate, an amount of the suspension necessary to provide 1×10^6 cells/well was collected and was centrifuged at 400 G for 3 minutes (2×10^5 cells/well for a 24-well plate). (7) After the supernatant was removed, the cells were re-suspended in improved MEM (containing 100 ng/ml KGF, 50 ng/ml EGF, 10 mM nicotinamide, 50 μM Y-27632, 0.5×B-27 Supplement, and 100 U/ml penicillin/streptomycin), the suspension was adjusted to correspond to 2 ml/well, and then the cells were seeded. A 6-well plate to which the cells were to be seeded had been coated in advance by adding a solution formed by mixing 10 μl of iMatrix-511 silk and 1.5 ml of PBS(−) to each well 1 hour before seeding, and incubating the plate at 37° C. and 5% CO2 for 1 hour. (8) On the next day (Day 1), the cells were washed with improved MEM, and then the culture medium was changed to improved MEM (5 ml/well) containing 100 ng/ml KGF, 50 ng/ml EGF, 10 mM nicotinamide, 50 μM Y-27632, 0.5×B-27 Supplement, and 100 U/ml penicillin/streptomycin. (9) The cells were washed with improved MEM 3 days after that (on Day 4), and then the culture medium was changed to the same culture medium as that in the step (7) (5 ml/well). (10) The steps (1) to (7) above were conducted 3 days after that (on Day 7), and the next passage (expansion culture) was conducted. Expansion culture and passage culture were repeated by repeating the steps (8), (9), and (10) from the next day. One round of the passage (expansion culture) corresponded to 7 days (operations above). FIGS. 4-A show the outline of this procedure. […]

[4] = culture medium for expansion culture with Y-27632
[5] = 50 μM, flow cytometry, FIG. 4-E
[6] = 50 μM, immunostaining after expansion culture, FIG. 4-D

C[C@@H](N)[C@H]1CC[C@H](C(=O)Nc2ccncc2)CC1 [Y-27632]
potential to differentiate into β-like cells ([1]; after 2 rounds of expansion culture with Y-27632 50 μM, FIG. 4-G): had a potential to differentiate | efficiency of induction to β-like cells on repeated expansion culture [1, 4]: tended to gradually decrease | ratio of the pancreatic endoderm cells (NKX6.1-positive) ([2]; 50 μM, 1 week, FIG. 2-C): most effective | ratio of β gal-positive cells (senescent cells) ([2]; 1 week, FIG. 2-D): exhibited an effect of reducing the ratio of β gal-positive cells | concentration most suitable for the proliferation ([2]; FIG. 2-B): 50 µM | number of NKX6.1-positive cells (pancreatic endoderm cells) ([2]; culture for 1 week, 24-well plate, FIG. 2-B): significantly increased | proliferative capacity of the pancreatic endoderm cells (Ki67-positive ratio) ([3]; 50 μM, during expansion culture, FIG. 4-F): maintained | Ki67-positive ratio [3, 5]: kept | ratio of the pancreatic endoderm cells [3, 5]: kept | expression of Ki67 [3, 6]: maintained | expression of PDX1 and NKX6.1 [3, 6]: maintained | total number of cells increased by a factor of ([3]; Y-27632 50 μM, 60 days, FIG. 4-B): ≥ 1×10^5 | number of PDX1+/NKX6.1+ pancreatic endoderm cells increased by a factor of ([3]; Y-27632 50 μM, 60 days, FIG. 4-C): ≥ 1×10^5 | NKX6.1-positive ratio on repeated expansion culture [3, 4]: tended to gradually decrease
